Results published in patent US10526316B2, “Quinoxaline and pyridopyrazine derivatives as PI3Kβ inhibitors” (Janssen Pharmaceutica NV, priority 2015, dated 2020).
Like-named read-outs stand apart in the source and are kept apart here.

Tests used:
PI3Kβ = molecular target: T1, PI3Kβ (Homo sapiens, UniProt P42338); assay: Enzyme binding assay (KINOMEscan, DiscoveRx); conditions: PIK3Cβ_h, read-out: Kd PIK3Cβ_h
T1 construct: purchased DiscoveRx Corporation, San Diego (contract service, KINOMEscan)
In short: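 Using the KINOMEscan format, the enzyme binding affinity of each compound was determined. Each value is the inhibitor binding constant, Kd (nM).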

kinase enzymes [1] = molecular target: T2, kinase enzymes (Homo sapiens, UniProt P42336); assay: Enzyme binding assay (KINOMEscan, DiscoveRx), further kinases of Table A; conditions: PIK3Cα_h
T2 construct: purchased DiscoveRx Corporation, San Diego (contract service, KINOMEscan)
In short: (§1)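 Uses KINOMEscan technology to determine binding affinity toward the kinase enzymes.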

kinase enzymes [2] = molecular target: T3, kinase enzymes (Homo sapiens, UniProt P42345); assay: as above; conditions: MTOR_h
T3 construct: purchased DiscoveRx Corporation, San Diego (contract service, KINOMEscan)
In short: as §1

kinase enzymes [3] = molecular target: T4, kinase enzymes (Homo sapiens, UniProt P48736); assay: as above; conditions: PIK3Cγ_h
T4 construct: purchased DiscoveRx Corporation, San Diego (contract service, KINOMEscan)
In short: as §1

[4] = tested on: Akt phosphorylated at Thr308 in PC-3 cells; assay: Cellular assay: phosphorylation of Akt at Thr308 in PC-3 cells (MSD ELISA); format: cell-based; conditions: PC-3 cells, 60 min compound incubation, MSD ELISA, read-out: IC50 pAkt_Thr308
In short: (§2)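 Compound treatment of PC-3 cells lasted 60 min at 37° C (0.3% DMSO). Lysates were then applied to plates carrying capture antibodies for the relevant phospho-site, and bound Akt was detected with an electrochemiluminescent anti-total Akt antibody; IC50s derive from five-point curves.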

PI3Kδ = molecular target: T5, PI3Kδ (Homo sapiens, UniProt O00329); assay: Enzyme binding assay (KINOMEscan, DiscoveRx); conditions: PIK3Cδ_h
T5 construct: purchased DiscoveRx Corporation, San Diego (contract service, KINOMEscan)
T5 sequence (O00329 1-1044): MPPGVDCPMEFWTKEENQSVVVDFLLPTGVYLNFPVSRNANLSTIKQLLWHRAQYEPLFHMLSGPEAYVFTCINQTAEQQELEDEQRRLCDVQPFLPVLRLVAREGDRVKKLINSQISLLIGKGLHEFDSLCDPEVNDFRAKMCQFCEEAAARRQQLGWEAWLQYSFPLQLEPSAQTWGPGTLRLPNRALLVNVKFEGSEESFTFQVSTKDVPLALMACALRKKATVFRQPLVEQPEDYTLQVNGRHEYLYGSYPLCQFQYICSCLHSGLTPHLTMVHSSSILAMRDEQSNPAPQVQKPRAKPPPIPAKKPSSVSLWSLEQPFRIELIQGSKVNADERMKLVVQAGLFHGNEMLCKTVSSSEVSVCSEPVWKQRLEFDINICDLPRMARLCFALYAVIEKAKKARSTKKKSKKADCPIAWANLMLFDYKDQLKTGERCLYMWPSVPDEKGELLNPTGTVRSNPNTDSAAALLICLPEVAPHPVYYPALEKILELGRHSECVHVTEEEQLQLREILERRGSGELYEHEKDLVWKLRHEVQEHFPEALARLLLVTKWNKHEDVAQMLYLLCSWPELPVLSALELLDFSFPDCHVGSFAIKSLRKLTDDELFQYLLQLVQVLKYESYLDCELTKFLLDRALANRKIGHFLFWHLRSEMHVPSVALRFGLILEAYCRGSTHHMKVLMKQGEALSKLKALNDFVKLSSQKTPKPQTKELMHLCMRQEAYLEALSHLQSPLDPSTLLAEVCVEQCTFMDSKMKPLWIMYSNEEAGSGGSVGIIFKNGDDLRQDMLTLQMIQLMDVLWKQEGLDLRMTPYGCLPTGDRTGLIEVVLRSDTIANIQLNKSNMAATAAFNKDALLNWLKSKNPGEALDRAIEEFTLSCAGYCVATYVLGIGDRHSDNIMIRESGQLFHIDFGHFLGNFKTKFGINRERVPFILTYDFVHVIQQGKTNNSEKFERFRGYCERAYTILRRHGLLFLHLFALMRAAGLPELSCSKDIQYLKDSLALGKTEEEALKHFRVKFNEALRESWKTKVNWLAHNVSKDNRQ
In short: as §1

[5] = tested on: Akt phosphorylated at Ser473 in PC-3 cells; assay: Cellular assay: phosphorylation of Akt at Ser473 in PC-3 cells (MSD ELISA); format: cell-based; conditions: PC-3 cells, 60 min compound incubation, MSD ELISA, read-out: IC50 pAkt_S473
In short: as §2

T1 sequence (P42338 whole entry): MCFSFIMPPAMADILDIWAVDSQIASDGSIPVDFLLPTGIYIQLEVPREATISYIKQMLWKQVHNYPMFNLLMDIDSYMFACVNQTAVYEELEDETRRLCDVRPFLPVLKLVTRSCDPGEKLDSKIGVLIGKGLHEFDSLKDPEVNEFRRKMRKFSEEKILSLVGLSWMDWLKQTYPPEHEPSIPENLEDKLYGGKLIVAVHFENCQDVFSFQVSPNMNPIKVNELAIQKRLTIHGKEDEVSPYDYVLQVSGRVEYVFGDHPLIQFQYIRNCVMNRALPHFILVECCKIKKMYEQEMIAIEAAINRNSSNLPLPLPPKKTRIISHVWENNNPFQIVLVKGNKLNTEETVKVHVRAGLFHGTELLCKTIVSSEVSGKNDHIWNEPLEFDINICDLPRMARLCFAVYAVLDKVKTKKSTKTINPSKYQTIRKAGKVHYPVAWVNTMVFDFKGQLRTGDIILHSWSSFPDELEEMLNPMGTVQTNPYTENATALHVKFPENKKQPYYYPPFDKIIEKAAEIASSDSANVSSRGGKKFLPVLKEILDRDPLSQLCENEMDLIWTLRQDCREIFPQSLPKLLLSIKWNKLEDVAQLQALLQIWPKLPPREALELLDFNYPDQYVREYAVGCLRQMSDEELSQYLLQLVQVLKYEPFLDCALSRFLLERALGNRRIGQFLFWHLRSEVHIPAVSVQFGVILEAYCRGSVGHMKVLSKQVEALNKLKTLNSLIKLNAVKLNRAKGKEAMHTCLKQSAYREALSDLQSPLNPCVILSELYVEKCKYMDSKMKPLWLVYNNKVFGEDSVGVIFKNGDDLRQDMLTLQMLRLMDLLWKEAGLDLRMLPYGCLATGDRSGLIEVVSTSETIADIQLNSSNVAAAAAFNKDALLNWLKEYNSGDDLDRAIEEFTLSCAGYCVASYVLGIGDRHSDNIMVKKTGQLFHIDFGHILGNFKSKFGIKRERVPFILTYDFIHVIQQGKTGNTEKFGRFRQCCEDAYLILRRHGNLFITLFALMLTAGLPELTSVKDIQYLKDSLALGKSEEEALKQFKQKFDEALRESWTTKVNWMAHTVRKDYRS
T2 sequence (P42336 whole entry): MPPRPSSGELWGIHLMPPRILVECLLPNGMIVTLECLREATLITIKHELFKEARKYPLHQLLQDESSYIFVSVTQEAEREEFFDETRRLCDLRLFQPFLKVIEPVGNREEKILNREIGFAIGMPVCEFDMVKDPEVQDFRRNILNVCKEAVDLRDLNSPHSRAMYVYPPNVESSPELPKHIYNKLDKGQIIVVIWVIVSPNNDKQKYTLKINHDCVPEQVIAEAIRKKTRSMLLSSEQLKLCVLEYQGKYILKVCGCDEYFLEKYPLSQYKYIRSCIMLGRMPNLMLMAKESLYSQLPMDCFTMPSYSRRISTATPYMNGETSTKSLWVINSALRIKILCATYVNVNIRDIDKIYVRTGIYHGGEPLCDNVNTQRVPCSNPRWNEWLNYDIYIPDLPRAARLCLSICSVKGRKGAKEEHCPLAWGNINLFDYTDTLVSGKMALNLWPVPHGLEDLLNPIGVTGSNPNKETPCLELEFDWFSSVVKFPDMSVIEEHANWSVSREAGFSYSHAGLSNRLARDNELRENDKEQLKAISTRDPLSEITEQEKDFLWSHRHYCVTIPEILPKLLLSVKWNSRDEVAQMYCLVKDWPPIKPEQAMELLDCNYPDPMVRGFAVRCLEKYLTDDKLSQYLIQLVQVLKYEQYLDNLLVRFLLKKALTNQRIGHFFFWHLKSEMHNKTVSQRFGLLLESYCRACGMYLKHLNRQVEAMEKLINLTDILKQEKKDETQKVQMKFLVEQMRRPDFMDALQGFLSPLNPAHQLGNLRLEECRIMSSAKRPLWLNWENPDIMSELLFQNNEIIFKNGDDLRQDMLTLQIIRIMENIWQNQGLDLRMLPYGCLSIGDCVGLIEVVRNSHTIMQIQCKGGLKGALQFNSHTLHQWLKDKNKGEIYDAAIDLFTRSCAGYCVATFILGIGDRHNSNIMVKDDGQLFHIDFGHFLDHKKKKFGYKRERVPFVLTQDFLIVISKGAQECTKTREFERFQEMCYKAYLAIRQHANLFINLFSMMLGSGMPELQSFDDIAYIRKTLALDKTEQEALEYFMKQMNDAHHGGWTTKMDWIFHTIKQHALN
T4 sequence (P48736 whole entry): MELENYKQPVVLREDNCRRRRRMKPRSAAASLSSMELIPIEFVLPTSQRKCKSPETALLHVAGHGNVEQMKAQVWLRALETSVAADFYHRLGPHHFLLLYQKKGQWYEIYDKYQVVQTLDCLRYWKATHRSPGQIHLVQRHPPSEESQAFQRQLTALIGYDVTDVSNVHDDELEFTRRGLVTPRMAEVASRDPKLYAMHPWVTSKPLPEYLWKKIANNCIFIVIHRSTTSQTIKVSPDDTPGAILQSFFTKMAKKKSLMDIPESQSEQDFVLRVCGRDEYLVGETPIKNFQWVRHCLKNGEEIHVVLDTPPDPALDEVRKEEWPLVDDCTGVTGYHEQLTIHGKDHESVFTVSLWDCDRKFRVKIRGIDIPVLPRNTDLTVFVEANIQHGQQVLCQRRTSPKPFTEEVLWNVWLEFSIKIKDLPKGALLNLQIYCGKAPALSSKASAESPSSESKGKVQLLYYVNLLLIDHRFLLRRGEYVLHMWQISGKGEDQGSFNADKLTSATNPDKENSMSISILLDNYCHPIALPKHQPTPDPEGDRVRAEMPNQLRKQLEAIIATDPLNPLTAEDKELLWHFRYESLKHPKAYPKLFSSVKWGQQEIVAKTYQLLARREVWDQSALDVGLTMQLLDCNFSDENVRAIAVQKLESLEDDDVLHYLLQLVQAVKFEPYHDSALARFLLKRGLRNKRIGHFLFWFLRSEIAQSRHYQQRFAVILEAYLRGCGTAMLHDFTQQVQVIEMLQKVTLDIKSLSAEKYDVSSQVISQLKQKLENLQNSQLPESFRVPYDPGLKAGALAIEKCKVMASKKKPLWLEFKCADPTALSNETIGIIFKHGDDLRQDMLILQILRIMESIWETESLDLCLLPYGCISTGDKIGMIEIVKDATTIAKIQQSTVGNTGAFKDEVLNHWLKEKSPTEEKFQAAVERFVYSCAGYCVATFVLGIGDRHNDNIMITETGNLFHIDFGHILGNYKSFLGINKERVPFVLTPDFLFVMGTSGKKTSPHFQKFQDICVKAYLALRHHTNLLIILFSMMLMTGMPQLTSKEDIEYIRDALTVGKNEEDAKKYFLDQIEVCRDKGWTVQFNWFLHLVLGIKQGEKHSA

| SMILES | Kd (PI3Kβ) [µM] | Kd (kinase enzymes [1]) [µM] | Kd (kinase enzymes [2]) [µM] | Kd (kinase enzymes [3]) [µM] | melting point [°C] | IC50 ([4]; Homo sapiens, PC-3, 1 h) [µM] | Kd (PI3Kδ) [µM] | IC50 ([5]; Homo sapiens, PC-3, 1 h) [µM] | IC50 [4] [µM] | IC50 [5] [µM] |
| --- | --- | --- | --- | --- | --- | --- | --- | --- | --- | --- |
| CC(Oc1cccc(F)c1)c1cc(C(=O)N2CCC[C@H]2CO)cc2ncc(N3CCOCC3)nc12 (single isomer, unassigned) [Compound 86] | 0.015 | 3.47 | > 30.2 | 21.4 | 76 | 0.263 | 0.537 | 0.513 | – | – |
| CC(Nc1cc(F)cc(F)c1)c1cc(C(=O)NS(N)(=O)=O)cc2ncc(N3CCOCC3)nc12 (single isomer, unassigned) [Compound 243a] | 0.0005 | 0.039 | 1.48 | 0.1 | 160 | > 0.513 | 0.069 | > 0.513 | – | – |
| CN(C)C(=O)c1cc(C2CCCN2c2cccc(F)c2)c2nc(N3CCOCC3)cnc2c1 (centres unmarked) [Compound 28] | 0.001 | 0.107 | > 30.2 | 0.832 | 80 | 0.006 | 0.029 | 0.005 | – | – |
| CC(Nc1cc(F)cc(F)c1)c1cc(CN2C[C@@H](C)O[C@@H](C)C2)cc2ncc(N3CCOCC3)nc12 (single isomer, unassigned) [Compound 206] | 7.08 | > 30.2 | > 30.2 | > 30.2 | 80 | – | > 30.2 | – | > 0.513 | > 0.513 |
| CC(Nc1cc(F)cc(F)c1)c1cc(C(=O)NC(C)(C)CO)cc2ncc(N3CCOCC3)nc12 (centres unmarked) [Compound 169] | 0.008 | 4.07 | 18.6 | 5.37 | 217 | 0.102 | 1.12 | 0.2 | – | – |
| C[C@H](CO)NC(=O)c1cc(C2CCCN2c2cc(F)cc(F)c2)c2nc(N3CCOCC3)cnc2c1 (single isomer, unassigned) [Compound 70] | 0.002 | 0.339 | 19.1 | 1.1 | 80 | 0.023 | 0.148 | ~0.045 | – | – |
| Cc1ccc(NC(C)c2cc(C(=O)NCCO)cc3ncc(N4CCOCC4)nc23)cc1F (single isomer, unassigned) [Compound 295b] | 19.5 | > 30.2 | > 30.2 | 4.57 | 120 | > 0.513 | > 30.2 | > 0.513 | – | – |
| CC(Nc1cc(F)cc(F)c1)c1cc(CO)cc2ncc(N3CCOCC3)nc12 (single isomer, unassigned) [Compound 154b] | 0.49 | 20.9 | 25.1 | 7.76 | 90 | – | 14.8 | – | > 0.513 | > 0.513 |
| CC(Nc1cc(F)cc(F)c1)c1cc(C(=O)N2CCNC(C(F)(F)F)C2)cc2ncc(N3CCOCC3)nc12 (centres unmarked) [Compound 237] | 0.001 | 0.288 | > 30.2 | 9.33 | 80 | 0.011 | 0.138 | 0.02 | – | – |
| CC(Nc1ccc(F)c(F)c1)c1cc(C(=O)NC[C@@H](C)O)cc2ncc(N3CCOCC3)nc12 (single isomer, unassigned) [Compound 346b] | 0.741 | 23.4 | > 30.2 | 2.75 | 106 | – | 20.9 | – | > 0.513 | > 0.513 |
| CNCCN(C)C(=O)c1cc(C(C)Nc2cc(F)c(C(F)(F)F)c(F)c2)c2nc(N3CCOCC3)cnc2c1 (centres unmarked) [Compound 224] | 0.186 | 27.5 | > 30.2 | > 30.2 | 163 | > 0.513 | 4.47 | 0.468 | – | – |
| CC(c1cc(C(=O)N(C)C)cc2ncc(N3CCOCC3)nc12)N(C)c1cccc(Cl)c1 (single isomer, unassigned) [Compound 140] | 5.13 | 14.8 | > 30.2 | 25.1 | 80 | > 0.513 | 15.8 | 0.479 | – | – |
| CN(C)C(=O)c1cc(N(C)Cc2cc(F)cc(F)c2)c2nc(N3CCOCC3)cnc2c1 [Compound 358] | 0.148 | 10 | > 30.2 | 17.8 | 80 | > 0.513 | 2.24 | > 0.513 | – | – |
| CC(Nc1cc(F)cc(F)c1)c1cc(C(=O)NC[C@@H](C)O)cc2ncc(N3CCOCC3)nc12 (single isomer, unassigned) [Compound 201] | 0.002 | 1.46 | 16.5 | 4.45 | 70 | – | 0.71 | – | 0.026 | 0.042 |
| CC(Nc1ccc(F)c(F)c1)c1cc(CO)cc2ncc(N3CCOCC3)nc12 (centres unmarked) [Compound 303] | 0.009 | 3.55 | 18.6 | 3.89 | 138 | 0.079 | 0.457 | 0.087 | – | – |
| CC(Nc1cc(F)cc(F)c1)c1cc(C=NO)cc2ncc(N3CCOCC3)nc12 (single isomer, unassigned) [Compound 225] | 0.006 | 4.68 | > 30.2 | 2.51 | 80 | 0.087 | 0.537 | 0.102 | – | – |
